Entries after “also recorded” stand apart in the source; their conditions may differ. Bridge positions count the residues as written; N and C are the ends. Square brackets hold non-standard residues; d marks the D form. Peptide text beside a SMILES is read from it. hArg = N=C(N)NCCCC[C@H](N)C(=O)O; Mpa = O=C(O)CCS
Assays:
platelets [1] = assay: Platelet function (Accumetrics RPFA) in patients undergoing PCI; type: in vivo, human; conditions: 10 minutes post final bolus
Method: (§1) Patients (n=45) undergoing PCI were enrolled. The study was approved by the IRB and all patients signed informed consent. Exclusion criteria included higher risk clinical scenarios mandating, according to institutional clinical practice, the use of GP IIb/IIIa antagonists (i.e., acute ST elevation MI or non q-wave MI with CPK elevation, pain at rest with EKG changes <24 hours, visible thrombus, pain refractory to heparin), pre-procedural GP IIb/IIIa inhibitor treatment, restenotic and graft lesions, and standard conditions excluding GP IIb/IIIa inhibitor use.
(§2) All patients received aspirin and intravenous heparin (50-70U/kg) monitored by activated clotting time (ACT) during the procedure. Patients were administered either no GP IIb/IIIa inhibitor, eptifibatide (180 μg/kg double bolus followed by 2 μg/kg/min for 16 h), or abciximab (0.25 mg/kg bolus intravenously followed by 0.125 μg/kg/min for 12 h) at the discretion of the primary operator. Platelet function was monitored using PPACK-anticoagulated blood and the Accumetrics RPFA device at baseline and 10 min post-final bolus. Interventionalists were blinded to RPFA results and not permitted to modify GP IIb-IIIa inhibitor dosing. Post-PCI, patients received clopidogrel (300 mg PO) followed by 75 mg daily.

platelets [2] = assay: Release of sCD154 from stimulated platelets in platelet-rich plasma (ELISA); type: cell-based, human; conditions: unstirred, FIG. 12B
platelets [3] = assay: as above; type: cell-based, human
Method: Platelet-rich plasma (PRP) was prepared from human donors by obtaining blood through a 19-gauge butterfly into PPACK anticoagulant (8.6 ml of 2.1 mM PPACK, Calbiochem, La Jolla, Calif.: final concentration 0.3 mM). Blood was aliquoted into 15 ml polypropylene tubes and centrifuged at 900 rpm for 20 minutes (160×g). The platelet rich plasma (PRP) was carefully removed and pooled in a new tube. Platelet counts were taken and recorded. Aliquots of PRP at 37° C. were then added to 1.5 ml microcentrifuge tubes containing various amounts of eptifibatide. To initiate aggregation, 20 μM ADP 4 μg/mL collagen or 5 μM TRAP6 was added and samples were rocked on a Nutator for 30 minutes at 37° C. The tubes were put on ice and immediately centrifuged at 15,000×g for 10 minutes at 4° C.
The platelet-poor plasma (PPP) supernatant was removed to new tubes and the levels of sCD154 in these samples were measured by ELISA. There was a time-dependent increase in sCD154 release when platelets were aggregated with either ADP or TRAP6.
In other experiments, various concentrations of eptifibatide, abciximab or tirofiban were added to PRP before the addition of TRAP. In the eptifibatide experiments, the release of βTG from platelet a granules was determined from PPP samples by ELISA. Inhibition of aggregation by GP IIb-IIIa antagonists was determined in PPACK-anticoagulated PRP by light-transmission aggregometry (Chrono-Log) as described in Phillips et al. (1995) J Exp. Med 182:33-40. To assess the effect of aspirin use on the release of sCD154 from platelets, PRP was obtained from 7 donors, incubated with a single concentration of GP IIb-IIIa inhibitor, and stimulated with 20 μmol/L ADP, 5 μmol/L TRAP or 4 μg/mL collagen for 30 minutes while rocking at 37° C. Resultant PPP was measured for sCD154. The same donors then took 325 mg of aspirin for 7 days. PRP was again collected and subjected to the same conditions, and the release of sCD154 was determined. A control reading (no addition of inhibitor) was taken with the agonist 0.5 mmol/L arachidonic acid in citrated PRP to ensure that the aspirin had been taken.

[4] = Plasma inflammatory markers after PCI (ELISA); type: in vivo, human
Method: as §1, §2
Venous blood samples were collected prior to (t=0) and at 30 minutes, 2 hours, and 24 hours after the angioplasty wire was advanced across the lesion. Blood was collected into 10 mL tubes with either EDTA (for sCD 154 analysis) or PPACK (for all other analyses) anticoagulant, centrifuged at 4° C., and stored at −80° C. until analysis.
Inflammatory markers in plasma samples were quantified by commercially available ELISA for sCD154 (Alexis BioChemical) with modification (12), RANTES, IL6, sICAM-1 (BioSource), and CRP (Alpha Diagnostic International).
Primary endpoint data are presented as mean±SE. Data were log transformed to achieve a normal distribution verified by Kolmogorov-Smirnov test for normality. Statistical comparisons were performed using two-way ANOVA to determine a difference in mean values over time between the 3 groups. Pair-wise comparisons were performed when the ANOVA false-positive rate was ≦5%. A Bonferroni corrective for 3 pair-wise comparisons was applied, in which the p-value of […] was used to signify a false-positive rate of 5%. For ANOVA with a false-positive rate of ≧5%, the pair-wise comparisons were reported to be statistically nonsignificant (NS). Baseline and procedural characteristics data were analyzed with standard one way ANOVA for continuous data in more than 3 groups and a student's t-test for comparison of 2 groups. A Mann-Whitney Rank Sum test was used for nominal data. Statistical significance was assumed if the false positive rate was ≦5%.

N=C(N)NCCCC[C@@H]1NC(=O)CCSSC[C@@H](C(N)=O)NC(=O)[C@@H]2CCCN2C(=O)[C@H](Cc2c[nH]c3ccccc23)NC(=O)[C@H](CC(=O)O)NC(=O)CNC1=O [eptifibatide] ([Mpa][hArg]GDWPC-NH2; disulfide 1-7)
Platelet inhibition (% inhibition) (platelets [1]): 98±3%
sCD154 shedding from TRAP-activated platelets without aggregation (platelets [2]): inhibited
Inhibition of sCD154 Release at >90% Platelet Aggregation Inhibition, % (platelets [3]; TRAP-stimulated platelets, release without GP IIb-IIIa inhibitor set at 100%, average and SD): 85 ± 6.3%
release of sCD154 from platelets activated with ADP or TRAP (platelets [3]; inhibitor added prior to agonist, PPACK plasma): blocked in a dose dependent manner; also recorded: inhibited
Potentiation of sCD154 Release, % (platelets [3]; maximal potentiation, TRAP-stimulated platelets, release without inhibitor set at 100%, average and SD): 26 ± 10%
rise of sICAM-1 and IL-6 after PCI ([4]; 2-24 hours after PCI, not statistically significant): lowest level of rise
plasma sCD154 levels after PCI ([4]; 30 minutes, 2 hours, 24 hours versus baseline): significantly lower than baseline
plasma RANTES levels after PCI ([4]; versus baseline): significant reductions
